Laboratory results published in US20100003346A1, “COMBINATION METHODS OF TREATING CANCER” (priority 2006, published 2010).
Like-named read-outs stand apart in the source and are kept apart here.

Key:
[1] = system: MCF7 human breast adenocarcinoma; assay: Cytotoxicity assay (MTS, CellTiter 96) in MCF7 cells; format: cell-based
Text: (§1) CT26 is a murine colon carcinoma. DA-3 is a murine mammary adenocarcinoma. TRAMP C1 is a murine prostate adenocarcinoma. MCF7 is a human breast adenocarcinoma. M IA PaCa-2 is a human pancreatic carcinoma. D122 is a murine lung carcinoma. BCL1 is a murine B cell leukemia. All cell lines were purchased from ATCC (Rockville, Md., USA), except for DA3 and D122 which were kindly provided by Prof. Y. Keisari (Tel-Aviv University, Israel).
(§2) MCF7, MIA PaCa-2 and BCL1 cells were maintained in RPMI-1640 medium (Biological Industries, Israel) supplemented with 10% FCS, 2 mM L-glutamine, 100 U ml^−1 penicillin and 100 μg ml^−1 streptomycin.
(§3) All cells (except for BCL1) were plated into 96-well microtiter plates (Corning) at a density of 2*10^3 cells per well and were allowed to adhere prior to treatment. BCL1 cells were seeded at a density of 20*10^4 cells per well. The cells were exposed to MJ, cytotoxic drugs, 2DG or their combinations at different concentrations for 24 hours. Cytotoxic drugs and 2DG were added 1 h prior to MJ addition.
(§4) Inhibition of cell proliferation was determined by the CellTiter 96 Aqueous Non-Radioactive Cell Proliferation Assay (Promega, Madison, Wis., USA). Upon completion of a given experiment, 20 μl of a mixture (20:1) of MTS (a tetrazolium compound, at a final concentration of 333 μg/ml)+phenazine methosulfate (at a final concentration of 25 μM) were added to each well of the 96-well plate for 1 h at 37° C. This allowed for the development of the reaction in which dehydrogenases reduce the MTS in metabolically active cells. […] Soluble MTS formazan product at wavelength 490 nm was measured with the CERES 900 HDi ELISA reader (Bio-Tek Instruments, Highland Park, Vt., USA). Optical density is directly proportional to the number of living cells in culture. Cytotoxicity (%) was calculated in the following way: [(absorbance of control cells−absorbance of drug-treated cells)/absorbance of control cells]×100.

[2] = system: CT26 murine colon carcinoma; assay: Cytotoxicity assay (MTS, CellTiter 96) in CT26 cells; format: cell-based
Procedure: as §1
The cells were maintained in a humidified atmosphere, at 37° C. with 5% CO2. CT26 and DA-3 cells were maintained in Dulbecco's modified Eagle's medium (Biological Industries, Beit-Haemek, Israel), supplemented with 10% FCS, 2 mM L-glutamine, 100 U ml^−1 penicillin, 100 μg ml^−1 streptomycin, 1 mM sodium pyruvate and 1:100 dilution of nonessential amino acids (all purchased from Biological Industries, Israel). […]
Inhibition of cell proliferation was determined by the CellTiter 96 Aqueous Non-Radioactive Cell Proliferation Assay (Promega, Madison, Wis., USA). […] Soluble MTS formazan product at wavelength 490 nm was measured with the CERES 900 HDi ELISA reader (Bio-Tek Instruments, Highland Park, Vt., USA). […] Cytotoxicity (%) was calculated in the following way: [(absorbance of control cells−absorbance of drug-treated cells)/absorbance of control cells]×100.

[3] = system: DA-3 murine mammary adenocarcinoma; assay: Cytotoxicity assay (MTS, CellTiter 96) in DA-3 cells; settings: for IC50: Mus musculus
Procedure: as §1
The cells were maintained in a humidified atmosphere, at 37° C. with 5% CO2. CT26 and DA-3 cells were maintained in Dulbecco's modified Eagle's medium (Biological Industries, Beit-Haemek, Israel), supplemented with 10% FCS, 2 mM L-glutamine, 100 U ml^−1 penicillin, 100 μg ml^−1 streptomycin, 1 mM sodium pyruvate and 1:100 dilution of nonessential amino acids (all purchased from Biological Industries, Israel).
as §3, §4

[4] = system: D122 murine lung carcinoma; assay: Cytotoxicity assay (MTS, CellTiter 96) in D122 cells; settings: for IC50: Mus musculus
Procedure: as §1, §3, §4

[5] = system: TRAMP C1 murine prostate adenocarcinoma; assay: Cytotoxicity assay (MTS, CellTiter 96) in TRAMP C1 cells; format: cell-based; settings: for Cooperative effect of combination of MJ and chemotherapeutic drug / IC50: TRAMP C1 cells; for Cooperative effect of combination of MJ and chemotherapeutic drug: drug combined with fixed concentration of MJ, cooperative = pV<0.05 vs expected additivity; for IC50: Mus musculus
Procedure: as §1
TRAMP C1 cells were grown in Dulbecco's modified Eagle's medium supplemented with 10% FCS, 2 mM L-glutamine, 100 U ml^−1 penicillin, 100 μg ml^−1 streptomycin, 1 mM sodium pyruvate, 1:100 dilution of nonessential amino acids, 5 μg/ml bovine insulin and 10 nM dehydroisoandrosterone.
as §3, §4

[6] = system: MIA PaCa-2 human pancreatic carcinoma; assay: Cytotoxicity assay (MTS, CellTiter 96) in MIA PaCa-2 cells; settings: for Cooperative effect of combination of MJ and chemotherapeutic drug: MIA PaCA-2 cells, drug combined with fixed concentration of MJ, cooperative = pV<0.05 vs expected additivity; for IC50: Homo sapiens
Text: as §1, §2, §3, §4

[7] = system: BCL1 murine B cell leukemia; assay: Cytotoxicity assay (MTS, CellTiter 96) in freshly extracted BCL1 cells; settings: for Interaction of MJ with drug (cytotoxicity vs expected additivity): BCL1; for Cooperative effect of combination of MJ and chemotherapeutic drug: BCL1 cells, drug combined with fixed concentration of MJ (0.1 mM), cooperative = pV<0.05 vs expected additivity; for IC50: Mus musculus
Text: as §1, §2
BCL1 cells, which are unable to grow continuously in culture, were maintained in BALB/c mice. Blood was taken from the tail vein of BCL1-bearing mice on day 23-28 post inoculation, and depleted of red blood cells (RBC) using RBC lysis buffer (Sigma-Aldrich). The purified leukemic cells were used for in vitro and in vivo experiments.
as §3, §4

[8] = mouse, in vivo
Procedure: (§5) 2×10^4 BCL1 cells, freshly extracted from BCL1 leukemia bearing BALB/c mice, were inoculated intraperitoneally (i.p.) into mice in 100 μl PBS to produce tumor growth. Methyl jasmonate at 60 mg/kg was administered to animals 5 times a week, daily, for 4 weeks, starting one day after cell inoculation. […] MJ was dissolved in a lipid formulation, Lipofundin (B. Braun Melsungen, Melsungen, Germany). The adriamycin was given to mice twice, on days 7 and 14, at 4 mg/kg, i.p. Control mice were treated with the vehicle alone. The survival of mice was monitored daily.

[9] = system: BCL1 leukemia; assay: Survival of BCL1 leukemia-bearing mice; format: in vivo, BALB/c mice; settings: MJ 60 mg/kg i.v. or adriamycin 4 mg/kg i.p. alone
Procedure: Balb/c male mice (7-8 weeks old) were obtained from the breeding colony of Tel-Aviv University, Israel. Animal care and experimentation were carried out in accordance with Tel-Aviv University guidelines and approved by the institutional animal use and care committee. Mice were kept in cages under standard food and housing conditions during the experiments.
as §5
Statistical significance in in vitro experiments was assessed using the two-tailed Student's t-test. P<0.05 was considered statistically significant. The survival curves (Kaplan-Meier test) and statistical analysis (Mantel-Cox test) were carried out using Statistical software.
Since adriamycin is used for treatment of leukemia, it was chosen for an experiment assessing a combination with MJ in vivo. […]

[10] = drug at other concentrations + 0.1 mM MJ

In the case of `O=CC[C@@H](O)[C@H](O)[C@H](O)CO` [2DG, 2-Deoxy-D-glucose], the “Effect of 2DG on cytotoxicity of MJ” value ([1]; MCF7, 2DG 0.5 mM, other MJ concentrations) is reported as “additive”, the “Effect of 2DG on cytotoxicity of MJ” value ([2]; CT26, 2DG 0.5 mM, each MJ concentration, pV<0.05) is reported as “significantly enhanced” and the “Effect of 2DG on cytotoxicity of MJ” value ([3]; DA-3, 2DG 0.5 mM with MJ) is reported as “No cooperative effect”. For the same molecule, the “Effect of 2DG on cytotoxicity of MJ” value ([4]; D122, 2DG 0.5 mM, each MJ concentration, pV<0.05) was “significantly enhanced”.
For `N.N.[Cl][Pt][Cl]` [Cisplatin, cis Diammineplatinum (II) dichloride], the “Cooperative effect of combination of MJ and chemotherapeutic drug” value (“Cooperative effect” below) [5] was “+” and the “Cooperative effect” value [6] was “+”.
In the case of `CC(=O)O[C@H]1C(=O)[C@@]2(C)[C@H]([C@H](OC(=O)c3ccccc3)[C@]3(O)C[C@H](OC(=O)[C@H](O)[C@@H](NC(=O)c4ccccc4)c4ccccc4)C(C)=C1C3(C)C)[C@]1(OC(C)=O)CO[C@@H]1C[C@@H]2O` [Taxol], the “Interaction of MJ with drug (cytotoxicity vs expected additivity)” value ([1]; MCF7, taxol 2.5 μg/ml + 1 mM MJ) is reported as “enhances the cytotoxic capability”, the “Interaction of MJ with drug (cytotoxicity vs expected additivity)” value ([1]; MCF7, taxol at other concentrations + 1 mM MJ) is reported as “additive” and the “Cooperative effect” value ([1]; MCF7 cells, drug combined with fixed concentration of MJ, cooperative = pV<0.05 vs expected additivity) is reported as “+”. The IC50 ([5]; drug alone, read-out: IC 50 of taxol) was 38 µg/mL, the IC50 ([5]; with 1 mM MJ, read-out: IC 50 of taxol by combined treatment with MJ) was 2 µg/mL and the “Combined effect of taxol with MJ vs expected additivity” value ([5]; TRAMP C1, taxol at all concentrations tested (1-50 μg/ml) + 1 mM MJ) was “significantly higher than the expected additivity”. The “Cooperative effect” value [5] was “+”, the “Cooperative effect” value ([3]; DA-3 cells, drug combined with fixed concentration of MJ, cooperative = pV<0.05 vs expected additivity) was “+” and the IC50 ([3]; DA-3, read-out: IC50 of taxol alone) was 9 µg/mL. The IC50 ([3]; DA-3, read-out: IC50 of taxol in combination with MJ) was 2.5 µg/mL, the “Cooperative effect” value ([4]; D122 cells, drug combined with fixed concentration of MJ, cooperative = pV<0.05 vs expected additivity) was “+” and the IC50 ([4]; read-out: IC50 of taxol alone) was 8.2 µg/mL. For the same molecule, the IC50 ([4]; read-out: IC50 of taxol in the presence of MJ) was < 1 µg/mL and the “Interaction of MJ with drug (cytotoxicity vs expected additivity)” value ([7]; drug + 0.1 mM MJ) was “No cooperative effect”.
For `O=NN(CCCl)C(=O)NCCCl` [BCNU, 1,3-bis{2-Chloroethyl}-1-nitroso-urea], the IC50 ([6]; MIA PaCa-2, read-out: IC50 of BCNU by itself) was > 25 µg/mL, the IC50 ([6]; MIA PaCa-2, read-out: IC50 of BCNU in the combination with MJ) was < 1 µg/mL and the “Cooperative effect” value [6] was “+”. For the same molecule, the “Interaction of MJ with drug (cytotoxicity vs expected additivity)” value ([6]; MIA PaCa-2, BCNU at all concentrations tested (1-25 μg/ml) + 1 mM MJ) was “strong cooperative effects”, the “Interaction of MJ with drug (cytotoxicity vs expected additivity)” value ([7]; BCNU 2.5 and 5 μg/ml + 0.1 mM MJ, pV<0.05) was “cooperation” and the “Interaction of MJ with drug (cytotoxicity vs expected additivity)” value [7, 10] was “additive effect”. For the same molecule, the “Cooperative effect” value [7] was “+”.
For `CC/C=C\CC1C(=O)CCC1CC(=O)OC` (stereo not shown) [MJ, methyl 3-oxo-2-(2-pentenyl)cyclopentaneacetic acid], the IC50 ([1]; Homo sapiens, MCF7 cells, 24 h exposure) was 1.49 ± 0.06 mM, the IC50 ([2]; Mus musculus, CT26 cells, 24 h exposure) was 2.59 ± 0.12 mM and the “Tolerability of MJ dose” value [8] was “well tolerated”. For the same molecule, the IC50 ([5]; 24 h exposure, read-out: IC50 of MJ) was 2.94 ± 0.13 mM, the IC50 ([3]; DA-3, 24 h, read-out: IC50 of MJ) was 1.91 ± 0.08 mM and the IC50 ([4]; 24 h, read-out: IC50 of MJ) was 1.22 ± 0.06 mM. For the same molecule, the IC50 ([6]; MIA PaCa-2, 24 h, read-out: IC50 of MJ) was 1.46 ± 0.13 mM, the IC50 ([7]; BCL1, 24 h, read-out: IC50 of MJ) was 0.56 ± 0.09 mM and the IC50 ([7]; BCL1, read-out: IC50 of MJ) was 0.56 mM.
With `COc1cccc2c1C(=O)c1c(O)c3c(c(O)c1C2=O)C[C@@](O)(C(=O)CO)C[C@@H]3O[C@H]1C[C@H](N)[C@H](O)[C@H](C)O1` [Adriamycin] the “Survival of BCL1 leukemia-bearing mice, single agent” value [9] was “did not induce increased survival”, the “Interaction of MJ with drug (cytotoxicity vs expected additivity)” value ([7]; adriamycin 10 and 25 ng/ml + 0.1 mM MJ) was “cooperation” and the “Interaction of MJ with drug (cytotoxicity vs expected additivity)” value [7, 10] was “additive effect”. The “Cooperative effect” value [7] was “+”.
